System: Acinetobacter baumannii strains
Test: Antibiotic susceptibility test (CLSI disk diffusion test method, read per CLSI 2016); for antibiotic susceptibility S/I/R: key: ‘S’ means susceptible; ‘I’ means intermediate; ‘R’ means resistant; for antibiotic susceptibility class: key: ‘S’ means susceptible; ‘I’ means intermediate; ‘R’ means resistant; for susceptibility category (S/I/R): key: ‘S’ means susceptible; ‘I’ means intermediate; ‘R’ means resistant
Type: cell-based
Parameters: antibiotic susceptibility test value / susceptibility test value (number given before S/I/R) / antibiotic susceptibility value: unit not given here

colistin
antibiotic susceptibility class (host strain YMC14/01/C29): S
antibiotic susceptibility test value (host strain YMC14/01/C29): 0.5
antibiotic susceptibility class (host strain YMC14/01/IP122): S
antibiotic susceptibility test value (host strain YMC14/01/IP122): 0.5
antibiotic susceptibility class (host strain YMC14/01/L8): S
antibiotic susceptibility test value (host strain YMC14/01/L8): 0.5
antibiotic susceptibility class (host strain YMC14/01/P31): S
antibiotic susceptibility test value (host strain YMC14/01/P31): 0.5
antibiotic susceptibility class (host strain YMC14/01/P117): S
antibiotic susceptibility test value (host strain YMC14/01/P117): 0.5
antibiotic susceptibility class (host strain YMC14/01/P224): S
antibiotic susceptibility test value (host strain YMC14/01/P224): 0.5
antibiotic susceptibility class (host strain YMC14/01/P727): S
antibiotic susceptibility test value (host strain YMC14/01/P727): 0.5
antibiotic susceptibility class (host strain YMC14/01/P728): S
antibiotic susceptibility test value (host strain YMC14/01/P728): 0.5
antibiotic susceptibility class (host strain YMC14/01/R130): S
antibiotic susceptibility test value (host strain YMC14/01/R130): 0.5
antibiotic susceptibility class (host strain YMC14/01/R160): S
antibiotic susceptibility test value (host strain YMC14/01/R160): 0.5
antibiotic susceptibility class (host strain YMC14/01/R198): S
antibiotic susceptibility test value (host strain YMC14/01/R198): 0.5
antibiotic susceptibility class (host strain YMC14/01/R257): S
antibiotic susceptibility test value (host strain YMC14/01/R257): 0.5
antibiotic susceptibility class (host strain YMC14/01/R270): S
antibiotic susceptibility test value (host strain YMC14/01/R270): 0.5
antibiotic susceptibility class (host strain YMC14/01/R324): S
antibiotic susceptibility test value (host strain YMC14/01/R324): 0.5
antibiotic susceptibility class (host strain YMC14/01/R443): S
antibiotic susceptibility test value (host strain YMC14/01/R443): 0.5
antibiotic susceptibility class (host strain YMC14/01/R451): S
antibiotic susceptibility test value (host strain YMC14/01/R451): 0.5
antibiotic susceptibility class (host strain YMC14/01/R560): S
antibiotic susceptibility test value (host strain YMC14/01/R560): 0.5
antibiotic susceptibility class (host strain YMC14/01/R617): S
antibiotic susceptibility test value (host strain YMC14/01/R617): 0.5
antibiotic susceptibility class (host strain YMC14/01/R671): S
antibiotic susceptibility test value (host strain YMC14/01/R671): 0.5
antibiotic susceptibility class (host strain YMC14/01/R732): S
antibiotic susceptibility test value (host strain YMC14/01/R732): 0.5
antibiotic susceptibility class (host strain YMC14/01/R767): S
antibiotic susceptibility test value (host strain YMC14/01/R767): 0.5
antibiotic susceptibility class (host strain YMC14/01/R904): S
antibiotic susceptibility test value (host strain YMC14/01/R904): 0.5
antibiotic susceptibility class (host strain YMC14/01/R905): S
antibiotic susceptibility test value (host strain YMC14/01/R905): 0.5
antibiotic susceptibility class (host strain YMC14/01/R921): S
antibiotic susceptibility test value (host strain YMC14/01/R921): 0.5
antibiotic susceptibility class (host strain YMC14/01/R941): S
antibiotic susceptibility test value (host strain YMC14/01/R941): 0.5
antibiotic susceptibility class (host strain YMC14/01/R958): S
antibiotic susceptibility test value (host strain YMC14/01/R958): 0.5
antibiotic susceptibility class (host strain YMC14/01/R1006): S
antibiotic susceptibility test value (host strain YMC14/01/R1006): 0.5
antibiotic susceptibility class (host strain YMC14/01/R1199): S
antibiotic susceptibility test value (host strain YMC14/01/R1199): 0.5
antibiotic susceptibility class (host strain YMC14/01/R1659): S
antibiotic susceptibility test value (host strain YMC14/01/R1659): 0.5
antibiotic susceptibility class (host strain YMC14/01/R1722): S
antibiotic susceptibility test value (host strain YMC14/01/R1722): 0.5
antibiotic susceptibility class (host strain YMC14/01/R1752): S
antibiotic susceptibility test value (host strain YMC14/01/R1752): 0.5
antibiotic susceptibility class (host strain YMC14/01/R2429): S
antibiotic susceptibility test value (host strain YMC14/01/R2429): 0.5
antibiotic susceptibility class (host strain YMC14/01/R2572): S
antibiotic susceptibility test value (host strain YMC14/01/R2572): 0.5
antibiotic susceptibility class (host strain YMC14/01/R2855): S
antibiotic susceptibility test value (host strain YMC14/01/R2855): 0.5
antibiotic susceptibility class (host strain YMC14/01/R2945): S
antibiotic susceptibility test value (host strain YMC14/01/R2945): 0.5
antibiotic susceptibility class (host strain YMC14/01/R3007): S
antibiotic susceptibility test value (host strain YMC14/01/R3007): 0.5
antibiotic susceptibility class (host strain YMC14/01/R3129): S
antibiotic susceptibility test value (host strain YMC14/01/R3129): 0.5
antibiotic susceptibility class (host strain YMC14/01/R3317): S
antibiotic susceptibility test value (host strain YMC14/01/R3317): 0.5
antibiotic susceptibility class (host strain YMC14/01/R3474): S
antibiotic susceptibility test value (host strain YMC14/01/R3474): 0.5
antibiotic susceptibility class (host strain YMC14/01/R3574): S
antibiotic susceptibility test value (host strain YMC14/01/R3574): 0.5
antibiotic susceptibility class (host strain YMC14/01/U313): S
antibiotic susceptibility test value (host strain YMC14/01/U313): 0.5
antibiotic susceptibility class (host strain YMC14/01/U318): S
antibiotic susceptibility test value (host strain YMC14/01/U318): 0.5
antibiotic susceptibility class (host strain YMC14/02/L18): S
antibiotic susceptibility test value (host strain YMC14/02/L18): 0.5
antibiotic susceptibility class (host strain YMC14/02/P47): S
antibiotic susceptibility test value (host strain YMC14/02/P47): 0.5
antibiotic susceptibility class (host strain YMC14/02/R1860): S
antibiotic susceptibility test value (host strain YMC14/02/R1860): 0.5
antibiotic susceptibility class (host strain YMC14/02/R2417): S
antibiotic susceptibility test value (host strain YMC14/02/R2417): 0.5
antibiotic susceptibility class (host strain YMC14/02/R2599): S
antibiotic susceptibility test value (host strain YMC14/02/R2599): 0.5
antibiotic susceptibility class (host strain YMC14/02/R2668): S
antibiotic susceptibility test value (host strain YMC14/02/R2668): 0.5
antibiotic susceptibility class (host strain YMC14/02/R2758): S
antibiotic susceptibility test value (host strain YMC14/02/R2758): 0.5
antibiotic susceptibility class (host strain YMC14/02/R2781): S
antibiotic susceptibility test value (host strain YMC14/02/R2781): 0.5
antibiotic susceptibility class (host strain YMC14/02/R3106): S
antibiotic susceptibility test value (host strain YMC14/02/R3106): 0.5
antibiotic susceptibility class (host strain YMC14/02/R3419): S
antibiotic susceptibility test value (host strain YMC14/02/R3419): 0.5
antibiotic susceptibility class (host strain YMC14/02/U1607): S
antibiotic susceptibility test value (host strain YMC14/02/U1607): 0.5
antibiotic susceptibility class (host strain YMC14/03/L9): S
antibiotic susceptibility test value (host strain YMC14/03/L9): 0.5
antibiotic susceptibility class (host strain YMC14/03/P471): S
antibiotic susceptibility test value (host strain YMC14/03/P471): 0.5
antibiotic susceptibility class (host strain YMC14/03/R122): S
antibiotic susceptibility test value (host strain YMC14/03/R122): 0.5
antibiotic susceptibility class (host strain YMC14/03/R217): S
antibiotic susceptibility test value (host strain YMC14/03/R217): 0.5
antibiotic susceptibility class (host strain YMC14/03/R380): S
antibiotic susceptibility test value (host strain YMC14/03/R380): 0.5
antibiotic susceptibility class (host strain YMC14/03/R618): S
antibiotic susceptibility test value (host strain YMC14/03/R618): 0.5
antibiotic susceptibility class (host strain YMC14/03/R2144): S
antibiotic susceptibility test value (host strain YMC14/03/R2144): 0.5
antibiotic susceptibility class (host strain YMC14/03/U4616): S
antibiotic susceptibility test value (host strain YMC14/03/U4616): 0.5
antibiotic susceptibility class (host strain YMC14/04/R1078): S
antibiotic susceptibility test value (host strain YMC14/04/R1078): 0.5
antibiotic susceptibility class (host strain YMC14/04/R1080): S
antibiotic susceptibility test value (host strain YMC14/04/R1080): 0.5
antibiotic susceptibility S/I/R (host strain YMC14/06/R2359): R
antibiotic susceptibility value (host strain YMC14/06/R2359): 16
susceptibility category (S/I/R) (host strain YMC14/06/R2359): R
susceptibility test value (number given before S/I/R) (host strain YMC14/06/R2359): 16
antibiotic susceptibility S/I/R (host strain YMC14/08/R1169): R
antibiotic susceptibility value (host strain YMC14/08/R1169): 16
susceptibility category (S/I/R) (host strain YMC14/08/R1169): R
susceptibility test value (number given before S/I/R) (host strain YMC14/08/R1169): 16
antibiotic susceptibility S/I/R (host strain YMC14/08/T90): R
antibiotic susceptibility value (host strain YMC14/08/T90): 16
susceptibility category (S/I/R) (host strain YMC14/08/T90): R
susceptibility test value (number given before S/I/R) (host strain YMC14/08/T90): 16
antibiotic susceptibility S/I/R (host strain YMC15/02/R436): R
antibiotic susceptibility value (host strain YMC15/02/R436): 8
susceptibility category (S/I/R) (host strain YMC15/02/R436): R
susceptibility test value (number given before S/I/R) (host strain YMC15/02/R436): 8
antibiotic susceptibility S/I/R (host strain YMC15/02/T28): R
antibiotic susceptibility value (host strain YMC15/02/T28): 16
susceptibility category (S/I/R) (host strain YMC15/02/T28): R
susceptibility test value (number given before S/I/R) (host strain YMC15/02/T28): 16
antibiotic susceptibility S/I/R (host strain YMC15/03/R1604): R
antibiotic susceptibility value (host strain YMC15/03/R1604): 16
susceptibility category (S/I/R) (host strain YMC15/03/R1604): R
susceptibility test value (number given before S/I/R) (host strain YMC15/03/R1604): 16
antibiotic susceptibility S/I/R (host strain YMC15/09/R1869): R
antibiotic susceptibility value (host strain YMC15/09/R1869): 16
susceptibility category (S/I/R) (host strain YMC15/09/R1869): R
susceptibility test value (number given before S/I/R) (host strain YMC15/09/R1869): 16
antibiotic susceptibility S/I/R (host strain YMC16/01/P11): S
antibiotic susceptibility value (host strain YMC16/01/P11): 0.5
susceptibility category (S/I/R) (host strain YMC16/01/P11): S
susceptibility test value (number given before S/I/R) (host strain YMC16/01/P11): 0.5
antibiotic susceptibility S/I/R (host strain YMC16/01/R123): S
antibiotic susceptibility value (host strain YMC16/01/R123): 0.5
susceptibility category (S/I/R) (host strain YMC16/01/R123): S
susceptibility test value (number given before S/I/R) (host strain YMC16/01/R123): 0.5
antibiotic susceptibility S/I/R (host strain YMC16/01/R198): S
antibiotic susceptibility value (host strain YMC16/01/R198): 0.5
susceptibility category (S/I/R) (host strain YMC16/01/R198): S
susceptibility test value (number given before S/I/R) (host strain YMC16/01/R198): 0.5
antibiotic susceptibility S/I/R (host strain YMC16/01/R353): S

Reference: patent publication US20240000872A1, “NOVEL BACTERIOPHAGE THAT LYSES ACINETOBACTER GENUS BACTERIA HAVING RESISTANCE TO ANTIBIOTICS” (priority 2020, published 2024)
